Experiments:
HEK 293 cells = assay: Depletion of intracellular Ca2+ stores in LTRPC3-HA- and vector-transfected HEK 293 cells (FLIPR); type: cell-based; conditions: no external Ca^2+
LTRPC3 [1] = molecular target: T1, LTRPC3 (Homo sapiens, UniProt Q9HCF6, R1695Q); assay: FLIPR Fluo-4 Ca2+ entry in LTRPC3-transfected HEK 293 cells; type: cell-based; conditions: for effect on LTRPC3 mediated Ca^2+ currents / entry (in words): 100 μM for 10 min, 1 mM Ca^2+ solution, then 10 mM Ca^2+; for block of LTRPC3 Ca^2+ currents: pre-treatment with 100 μM, 1 mM Ca^2+ present, stimulated by adding 10 mM Ca^2+ (FIG. 19C)
T1 construct: the complete open reading frame of LTRPC3 with a C-terminal HA tag was transiently transfected into HEK 293 cells; expressed in transfected cells; host or cells: HEK 293 cells, transient transfection with pcDNA3.1/Hygro-LTRPC3-HA
T1 sequence (Q9HCF6 with tags, fused parts or gaps isoform Q9HCF6-2 R1670Q limits assumed): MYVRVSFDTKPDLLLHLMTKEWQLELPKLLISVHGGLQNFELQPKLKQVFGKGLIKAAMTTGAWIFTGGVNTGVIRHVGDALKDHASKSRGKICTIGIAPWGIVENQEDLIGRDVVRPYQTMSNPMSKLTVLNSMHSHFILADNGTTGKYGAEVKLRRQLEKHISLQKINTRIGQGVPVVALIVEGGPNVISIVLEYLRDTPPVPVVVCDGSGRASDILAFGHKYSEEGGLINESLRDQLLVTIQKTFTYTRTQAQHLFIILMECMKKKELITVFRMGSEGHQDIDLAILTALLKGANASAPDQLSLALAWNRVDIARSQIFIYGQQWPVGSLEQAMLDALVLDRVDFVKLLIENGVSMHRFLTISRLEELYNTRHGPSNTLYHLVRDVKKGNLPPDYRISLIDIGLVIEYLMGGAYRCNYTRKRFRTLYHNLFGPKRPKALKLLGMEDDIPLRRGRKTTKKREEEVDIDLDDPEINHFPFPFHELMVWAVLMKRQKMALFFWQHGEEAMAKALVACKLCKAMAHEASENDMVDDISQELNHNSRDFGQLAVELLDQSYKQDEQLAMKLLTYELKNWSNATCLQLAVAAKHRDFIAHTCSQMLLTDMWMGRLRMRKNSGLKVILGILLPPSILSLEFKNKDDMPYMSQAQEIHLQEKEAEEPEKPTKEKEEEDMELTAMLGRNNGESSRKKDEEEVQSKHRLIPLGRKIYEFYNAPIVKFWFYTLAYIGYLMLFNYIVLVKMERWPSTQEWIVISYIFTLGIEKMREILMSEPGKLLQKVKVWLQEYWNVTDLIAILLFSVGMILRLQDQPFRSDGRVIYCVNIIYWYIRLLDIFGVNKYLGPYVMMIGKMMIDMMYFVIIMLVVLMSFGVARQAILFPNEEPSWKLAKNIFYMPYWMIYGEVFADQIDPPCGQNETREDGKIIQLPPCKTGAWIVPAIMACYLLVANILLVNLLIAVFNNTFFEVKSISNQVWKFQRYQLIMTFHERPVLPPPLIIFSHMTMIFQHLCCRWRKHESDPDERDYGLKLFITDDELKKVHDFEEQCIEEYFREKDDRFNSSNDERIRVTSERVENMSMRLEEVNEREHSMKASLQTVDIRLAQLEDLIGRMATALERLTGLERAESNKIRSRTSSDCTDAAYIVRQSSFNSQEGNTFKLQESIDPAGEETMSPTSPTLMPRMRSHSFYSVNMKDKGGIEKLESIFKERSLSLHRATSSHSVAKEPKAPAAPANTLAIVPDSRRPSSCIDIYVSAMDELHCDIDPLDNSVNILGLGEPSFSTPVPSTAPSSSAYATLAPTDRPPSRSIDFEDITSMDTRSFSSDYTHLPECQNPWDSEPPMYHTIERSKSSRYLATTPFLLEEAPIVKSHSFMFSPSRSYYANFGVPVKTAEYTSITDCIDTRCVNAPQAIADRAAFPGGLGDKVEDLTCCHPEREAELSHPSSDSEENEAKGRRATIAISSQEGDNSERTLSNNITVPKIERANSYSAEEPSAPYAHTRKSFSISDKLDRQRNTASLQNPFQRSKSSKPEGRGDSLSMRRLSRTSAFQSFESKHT
Method: […] (A), or 50 μM carbachol (B) was first added to LTRPC3 expressing HEK 293 cells in the absence of external Ca^2+. After 9 minutes, 2 mM Ca^2+ solution was added to the cell medium at the indicated times.Currents for vector transfected HEK 293 cells, and LTRPC3 expressing HEK 293 cells are labeled accordingly. […] Cells loaded with Fluo-4 were incubated in 1 mM Ca^2+ solution and treated with 100 μM of La^3+ (“w/La^3+”), Gd^3+ (“w/Gd^3+”) or without blockers (“w/o blocker”) for 10 min prior to the addition of 10 mM Ca^2+ to the cell medium as indicated. Curves represent averages of three independent experiments, each involving at least 8 wells per condition. Physiometric methods were performed as described in Example 8 herein.
(§1) Panels A, C and E show results obtained for vector-transfected cells, while Panels B, D and F show results obtained for TRPM3-transfected cells. […] Cells loaded with Fluo-4 were incubated in 1 mM Ca^2+ solution and treated with 100 μM of Gd^3+ (red) or without blockers (black) for 10 min prior to the addition of 10 mM Ca^2+ to the bath solution as indicated. […] Cells loaded with Fluo-4 were incubated in a nominally Ca^2+-free media and treated without blockers (black) or with 100 μM of Gd^3+ (red) for 10 min prior to the addition of 2 μM TG (Panels C and D, first arrow) or 50 μM CCh (Panels E and F, first arrow), Ca^2+ entry was stimulated by the bath addition of […] (second arrow). Representative traces from one of three independent experiments are shown; each trace is the mean of 12 wells per condition. Physiometric methods were performed as described in Example 10 herein.
(§2) Moreover, physiometric studies have shown that LTRPC3 is a functional Ca^2+ permeable channel (see FIGS. 18 and 19, and Example 7). LTRPC3 function was assessed using a Fluorometric Imaging Plate Reader (FLIPR™) that measures real-time intracellular fluorescence changes. Cells transiently transfected with vector or LTRPC3-HA were loaded with the cytoplasmic Ca^2+ indicator Fluro-4 in a 1 mM Ca^2+ solution. […] The non-transfected cells were indistinguishable from the vector-transfected cells (data not shown). Therefore, LTRPC3 is a constitutively active channel capable of mediating Ca^2+ influx.
The lanthamides, gadolinium (Gd^3+) and lanthanum (La^3+), are noneselective Ca^2+-permeable channel blockers, often used as part of the characterization of overexpressed TRP channels. […] In the presence of 1 mM Ca^2+ in which endogenous SOCs is minimally activated (FIG. 18A), pre-treatment with 100 μM of La^3+and Gd^3+blocked LTRPC3 Ca^2+ currents, stimulated by adding 10 mM Ca^2+, by 67 and 39%, respectively.
Additional experiments were performed to further confirm the Ca^2+ store-depleted activation of LTRPC3 using Gd^3+. The effects of 100 μM Gd^3+ on Ca^2+ permeability were tested in vector- and LTRPC3-transfected cells. […] In contrast, 100 μM Gd^3+ inhibited Ca^2+ entry, induced by adding 10 mM Ca^2+, by 53% in LTRPC3-transfected cells (see FIG. 22B). Gd^3+ reduced fluorescence units in vector-transfected cells from 1470±140 to −58±8 and in LTRPC3-transfected cells from 6000±322 to 2080±199 (n=12). Fluorescence values were measured 150 seconds after adding 10 mM Ca^2+ and percent blockade was calculated as 1 minus FLTRPC3−FVector in the presence of Gd^3+ divided by FLTRPC3−FVector without blocker. The effects of Gd^3+ on LTRPC3-mediated Ca^2+ entry, induced by 10 mM Ca^2+, in the presence of thapsigargin or carbachol was also examined. Cells were incubated in nominally Ca^2+-free medium for thapsigargin and carbachol experiments. Gd^3+ inhibited Ca^2+ entry by 51% after depletion of intracellular stores with thapsigargin (see FIG. 22B). Gd^3+ reduced peak fluorescence after 10 mM Ca^2+ addition in vector-transfected cells from 26444±2410 to 1316±60 and in LTRPC3-transfected cells from 37676±2425 to 6783±250 (see FIGS. 22C and D, respectively; n=12). […]

LTRPC3 [2] = molecular target: T1, LTRPC3; assay: as above; type: cell-based; conditions: 100 μM Gd^3+, nominally Ca^2+-free medium
[3] = system: endogenous Ca^2+ entry pathway in HEK 293 cells; assay: FLIPR Fluo-4 Ca2+ entry in vector-transfected HEK 293 cells (endogenous pathway); type: cell-based; conditions: 100 μM Gd^3+
Method: as §1, §2
To further address the mechanism of LTRPC3-mediated Ca^2+ entry, similar Ca^2+ addition experiments were performed on transfected cells incubated (˜30 min) in a nominally Ca^2+-free solution. Previous studies have shown that lowering extracellular Ca^2+ concentration below physiological levels can deplete intracellular Ca^2+ stores in many cell types including HEK 293 (EMBO J. 17, 4274-4282, (1998)). […]
Additional experiments were performed to further confirm the Ca^2+ store-depleted activation of LTRPC3 using Gd^3+. […] Gd^3+ reduced fluorescence units in vector-transfected cells from 1470±140 to −58±8 and in LTRPC3-transfected cells from 6000±322 to 2080±199 (n=12). Fluorescence values were measured 150 seconds after adding 10 mM Ca^2+ and percent blockade was calculated as 1 minus FLTRPC3−FVector in the presence of Gd^3+ divided by FLTRPC3−FVector without blocker. […] Gd^3+ reduced peak fluorescence after 10 mM Ca^2+ addition in vector-transfected cells from 26444±2410 to 1316±60 and in LTRPC3-transfected cells from 37676±2425 to 6783±250 (see FIGS. 22C and D, respectively; n=12). […] Gd^3+ reduced peak Ca^2+ fluorescence in vector-transfected cells from 9327±466 to 453±15 and in LTRPC3-transfected cells from 14747±988 to 1975±79 (see FIGS. 22E and F, respectively; n=12).

[4] = system: nigral dopaminergic neurons; conditions: gel foam implants in the striatum; cited from earlier work
[5] = picogram quantities to the female vomeronasal organ; female recipients; cited from earlier work

C[N+](C)(C)CCOC(N)=O [CCh, Carbachol]
intracellular Ca^2+ response (in words) (HEK 293 cells; 50 μM CCh, LTRPC3- and vector-transfected cells): transient and rapid intracellular Ca^2+ increase

[Gd+3] [Gd^3+, gadolinium]
fluorescence units in LTRPC3-transfected cells in the presence of Gd^3+ (LTRPC3 [1]; 100 μM Gd^3+, 1 mM Ca^2+, 150 seconds after adding 10 mM Ca^2+, n=12): 2080±199 fluorescence units | inhibition of Ca^2+ entry in LTRPC3-transfected cells (percent blockade) (LTRPC3 [1]; 100 μM Gd^3+, cells in 1 mM Ca^2+, entry induced by adding 10 mM Ca^2+, 150 seconds, vector signal subtracted): 53% | effect on LTRPC3 mediated Ca^2+ currents / entry (in words) (LTRPC3 [1]): partially inhibited | block of LTRPC3 Ca^2+ currents (LTRPC3 [1]): 39% | inhibition of Ca^2+ entry after depletion of intracellular stores with carbachol (LTRPC3 [2]; 10 mM Ca^2+ addition): 72% | inhibition of Ca^2+ entry after depletion of intracellular stores with thapsigargin (LTRPC3 [2]; 10 mM Ca^2+ addition): 51% | peak Ca^2+ fluorescence in LTRPC3-transfected cells, carbachol (LTRPC3 [2]; store depletion with carbachol, n=12): 1975±79 | peak fluorescence after 10 mM Ca^2+ addition in LTRPC3-transfected cells, thapsigargin (LTRPC3 [2]; store depletion with thapsigargin, n=12): 6783±250 | fluorescence units in vector-transfected cells in the presence of Gd^3+ ([3]; 1 mM Ca^2+, 150 seconds after adding 10 mM Ca^2+, n=12): −58±8 fluorescence units | effect on minimal Ca^2+ influx in vector-transfected cells (in words) ([3]; 1 mM Ca^2+, addition of 10 mM Ca^2+): strongly inhibited | peak Ca^2+ fluorescence in vector-transfected cells, carbachol ([3]; store depletion with carbachol, nominally Ca^2+-free medium, n=12): 453±15 | peak fluorescence after 10 mM Ca^2+ addition in vector-transfected cells, thapsigargin ([3]; store depletion with thapsigargin, nominally Ca^2+-free medium, n=12): 1316±60

FGF-2: FGF-2 (basic FGF), fibroblast growth factor
protection of nigral dopaminergic neurons from the toxicity associated with MPTP exposure [4]: near complete protection

[La+3] [La^3+, lanthanum]
effect on LTRPC3 mediated Ca^2+ currents / entry (in words) (LTRPC3 [1]): inhibited | block of LTRPC3 Ca^2+ currents (LTRPC3 [1]): 67%

C/C=C(/C)C(=O)O[C@H]1C(C)=C2[C@H]([C@@H]1OC(=O)CCCCCCC)[C@@](C)(OC(C)=O)C[C@H](OC(=O)CCC)[C@@]1(O)[C@H]2OC(=O)[C@@]1(C)O [thapsigargin]
depletion of Ca^2+ stores (in words) (HEK 293 cells; 2 μM thapsigargin, LTRPC3-HA- and vector-transfected cells): equivalently depleted

C[C@@]12C=CC[C@H]1[C@@H]1CCC3=CC(=O)CC[C@]3(C)[C@H]1CC2 [androstadienone]
nervousness, tension and other negative feelings [5]: significant reduction
